Earlier results as cited in patent US20110300245A1, “Topical, palatable, anti-inflammatory and analgesic for specific application to intraoral, gingival and extraoral areas correlated with, and related to, the trigeminal nerve and its nerve branches and plexus. To mitigate, attenuate or prevent migraine-type headache, cluster-type headache, …” (priority 2010, published 2011).
Like-named read-outs stand apart in the source and are kept apart here.

Tests used:
[1] = not given; remark: listed apart in the source
[2] = rheumatoid arthritis patients
[3] = intravesical, 213 patients
[4] = for patients with symptoms controlled within 2 weeks: added orally to the sulfasalazine/prednisolone regimen, allopurinol 50 mg or DMSO 500 mg four times a day, p<0.01
[5] = not given; remark: listed apart in the source
[6] = in vivo
[7] = tested on: peripheral nerve C fibers; settings: laboratory studies
[8] = not given; remark: listed apart in the source
[9] = not given; remark: listed apart in the source
[10] = tested on: cell proliferation; settings: in vitro
[11] = given with sulfasalazine 2 gm daily, p<0.05

C[S+](C)[O-] [DMSO, dimethyl sulfoxide]
patients showing improvement (acute patients): 80% | patients showing improvement (chronic patients): 60% | relief of pain in rheumatoid arthritis ([1]; 27 patients with rheumatoid arthritis): all but four had some degree of relief of pain | pain relief ([1]; 103 patients, topical application): pain relief of varying degrees in most patients | time to pain relief after application ([1]; DMSO 1.0 ml, five patients with acute supraspinatus tendon pain associated with calcification): ≤ 10 min | symptomatic relief ([1]; all six patients with acute calcified supraspinatus bursitis): Spectacular symptomatic relief | recovery with normal use of the shoulder ([1]; continued applications every four hours over the following 24 hour period): complete recovery | effects on joint pain, range of joint motion and grip strength [2]: analgesic and anti-inflammatory effects | systemic or local toxicity [3]: no systemic or local toxicity | symptomatic relief ([3]; majority of patients): Significant symptomatic relief | patients with symptoms controlled within 2 weeks [4]: 84% | patients relapsed during 12 months of prophylactic treatment [4, 11]: 5% | number of patients with normal ICP ([5]; after 6 days of treatment, ten patients): 7 | ICP after 24 h ([5]; intravenous every 6 h, all ten patients, ICP 40-127 mm Hg): reduction of ICP | neurological outcome ([5]; severe closed-head injury patients, intravenous): improves neurological outcome | edema in animals [6]: reduction of edema | nerve conduction [7]: blocking peripheral nerve C fibers

CC(C(=O)O)c1cccc(C(=O)c2ccccc2)c1 (stereo not shown) [Ketoprofen]
side effects ([8]; 30-day treatment phase): minimal | average monthly headache burden score (intensity 0-10 x duration in hours) ([8]; 30-day treatment phase, gel once daily, 20 patients, 30-day baseline 454.8, p<0.001): 86.5 | analgesic and headache medication intake ([8]; treatment phase versus baseline): significantly reduced

Oc1ncnc2[nH]ncc12 [allopurinol]
patients with symptoms controlled within 2 weeks [4]: 84% | patients relapsed during 12 months of prophylactic treatment [4, 11]: 5%

O=C(O)c1cc(/N=N/c2ccc(S(=O)(=O)Nc3ccccn3)cc2)ccc1O [sulfasoizine, sulfasalazine]
patients relapsed during 12 months of prophylactic treatment ([4]; sulfasalazine 2 gm daily alone): 25%

CNS(=O)(=O)Cc1ccc2[nH]cc(CCN(C)C)c2c1 [sumatriptan]
mean headache relief (0-10 scale) ([9]; 50 mg oral, at 1, 2, 4, and 24 hours after initiation of treatment): Significant mean headache relief | nausea relief ([9]; 50 mg oral, same post treatment time intervals (1, 2, 4, 24 hours)): Significant nausea relief | headache and nausea recurrence ([9]; at 24 hours): some headache and nausea recurrence

O=C(O)C[C@H](O)C(=O)OC[C@H]1OC(O)[C@H](O)[C@@H](O)[C@@H]1O[C@H]1O[C@H](CO)[C@@H](O)[C@H](O)[C@H]1O (stereo partly drawn) [veracylglucan B, alpha-D-Glcp-(1-->4)-6-O-(1-L-maloyl)-alpha,-beta,-D-Glcp]
anti-inflammatory activity and effect on cell proliferation [10]: potent anti-inflammatory and anti-proliferative effects

O=C(O)C[C@H](O)C(=O)OC[C@H]1O[C@H](O[C@H]2[C@H](O)[C@@H](O)[C@@H](O[C@H]3[C@H](O)[C@@H](O)[C@@H](O[C@H]4[C@H](O)[C@@H](O)[C@@H](O[C@H]5[C@H](O)[C@@H](O)C(O)O[C@@H]5COC(=O)[C@@H](O)CC(=O)O)O[C@@H]4COC(=O)[C@@H](O)CC(=O)O)O[C@@H]3COC(=O)[C@@H](O)CC(=O)O)O[C@@H]2COC(=O)[C@@H](O)CC(=O)O)[C@H](O)[C@@H](O)[C@@H]1O[C@H]1O[C@H](CO)[C@@H](O)[C@H](O)[C@H]1O (stereo partly drawn) [veracylglucan C, alpha-D-Glcp-(1-->4)-tetra-[6-O-(1-L-maloyl)-alpha-D-Glcp-(1-->4)]-6-O-(1-L-maloyl)-alpha,-beta-D-Glcp]
anti-inflammatory activity and effect on cell proliferation [10]: significant cell proliferative and anti-inflammatory activities
